Legend:
Format in all cases: in vivo
[1] = test system: Spodoptera littoralis (Egyptian Cotton Leaf Worm); test: Comparison: insecticidal activity against Spodoptera littoralis; settings: 72 h, 3 days after infestation
Procedure: (§1) Compound B is disclosed in WO2013/063282 as an example on page 114 (Table 4, M is CH(Me), Rx=2-F, Ry=4-Cl) and compound C is disclosed in WO 2013/173218 as example on page 123 (Table 14, M is CH(Me), R4a=2-F, R4b=4-Cl). The activities of compounds B and C to treat different pests are compared with the activities of compound A according to the present invention. The tests are carried out at different concentrations (ppm).
a) Insecticidal Activity Against Spodoptera littoralis (Egyptian Cotton Leaf Worm)
Cotton leaf discs were placed onto agar in 24-well microtiter plates and sprayed with aqueous test solutions prepared from 10,000 ppm DMSO stock solutions. After drying the leaf discs were infested with five L1 larvae. The samples were assessed for mortality 3 days after infestation.

[2] = test system: Plutella xylostella (Diamond Back Moth); test: Comparison: insecticidal activity against Plutella xylostella; settings: 120 h, 5 days after infestation
Procedure: as §1
b) Insecticidal Activity Against Plutella xylostella (Diamond Back Moth):
(§2) 24-well microtiter plates with artificial diet were treated with aqueous test solutions prepared from 10,000 ppm DMSO stock solutions by pipetting. After drying, the plates were infested with L2 larvae (10 to 15 per well). The samples were assessed for mortality and growth inhibition in comparison to untreated samples 5 days after infestation.

[3] = test system: Diabrotica Balteata (Corn Root Worm); test: Comparison: insecticidal activity against Diabrotica balteata; settings: 96 h, 4 days after infestation
Procedure: as §1
c) Insecticidal Activity Against Diabrotica Balteata (Corn Root Worm):
as §2, with “Maize sprouts, placed on an agar layer in 24-well” for “24-well”, “plates” for “plates with artificial diet”, “spraying.” for “pipetting.”, “(6” for “(10”, “10” for “15”, “4” for “5”

Work on `CC1CCN(Cc2nn(-c3ccc(Cl)cc3)nc2-c2ccccc2F)CC1` [Compound C] yielded a mortality at 12.5 ppm [1] of 0%, a mortality at 50 ppm [1] of 0% and a mortality at 200 ppm [1] of 50%. For the same molecule, the mortality at 12.5 ppm [2] was 0%, the mortality at 50 ppm [2] was 0% and the mortality at 200 ppm [2] was 0%. It also gave a mortality at 12.5 ppm [3] of 0%, a mortality at 50 ppm [3] of 100% and a mortality at 200 ppm [3] of 100%.
`CC1CCN(Cc2nc(-c3ccc(Cl)cc3)nn2-c2ccccc2F)CC1` [A] showed a mortality at 12.5 ppm [1] of 100%, a mortality at 50 ppm [1] of 100% and a mortality at 200 ppm [1] of 100%. The mortality at 12.5 ppm [2] was 50%, the mortality at 50 ppm [2] was 100% and the mortality at 200 ppm [2] was 100%. It also gave a mortality at 12.5 ppm [3] of 100%, a mortality at 50 ppm [3] of 100% and a mortality at 200 ppm [3] of 100%.
Work on `CC1CCN(Cc2cn(-c3ccc(Cl)cc3)nc2-c2ccccc2F)CC1` [Compound B] yielded a mortality at 12.5 ppm [1] of 0%, a mortality at 50 ppm [1] of 0% and a mortality at 200 ppm [1] of 100%. It also gave a mortality at 12.5 ppm [2] of 0%, a mortality at 50 ppm [2] of 0% and a mortality at 200 ppm [2] of 0%. It also gave a mortality at 12.5 ppm [3] of 0%, a mortality at 50 ppm [3] of 100% and a mortality at 200 ppm [3] of 100%.
